Measurements as given in publication PMC10584170, “Machine learning-based phenotypic imaging to characterise the targetable biology of Plasmodium falciparum male gametocytes for the development of transmission-blocking antimalarials” (PLOS Pathogens, 2023).
pIC50: −log10 of the molar value. Read-outs that look alike come from different tables or passages of the source.

Experiments:
[1] = tested on: HepG2 cells; assay: HepG2 cytotoxicity counter-screen; details: for Mean TOX: mean of the HepG2 TOX50 values; for Tox50: cytotoxic activity against HepG2 cells
[2] = tested on: P. falciparum female gametocytes; assay: P. falciparum Dual Gamete Formation Assay (PfDGFA), female readout (Pfs25-positive female gametes); assay type: cell-based, Plasmodium falciparum NF54; details: for Selectivity ratio F: HepG2 Tox50 versus female IC50; for inhibition at 2 µM: 24h preincubation with gametocytes
Summary of the method: (§1)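 Mature NF54 gametocytes (day 14) were incubated with compound for 24 h at 37°C under 1% O2/3% CO2, then triggered with xanthurenic acid ookinete medium plus Cy3-anti-Pfs25. Exflagellation was imaged by brightfield; after a further 24 h at 28°C, Pfs25-positive female gametes were imaged by fluorescence and counted by automated image analysis.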

[3] = tested on: HepG2 cells; details: cited from earlier work
[4] = tested on: P. berghei ookinete development; assay: P. berghei Ookinete Development Assay (PbODA); assay type: cell-based, Plasmodium berghei; details: Mean TOX HepG2 over Pb ODA value; GREEN = >10-fold; RED = <10-fold
Source text: (§2) Fig 1 The activity of TCAMS compound identified in the Pf DGFA screen. (A) 85 molecules were confirmed active in the Pf DGFA. 58 were previously identified in one or more transmission-blocking screens. […] No molecule was identified with >4.7-fold greater activity against female gametocytes. Abbreviations (IC50 = concentration giving 50% inhibition, PbODA = P. berghei Ookinete Development Assay, PfDGFA = P. falciparum Dual Gamete Formation Assay, PfFGAA = P. falciparum Female Gametocyte Activation Assay, PfGCT = P. falciparum Gametocyte Viability ATP Assay).

[5] = tested on: P. falciparum male gametocytes; assay: P. falciparum Dual Gamete Formation Assay (PfDGFA), male readout (exflagellation); assay type: cell-based, Plasmodium falciparum NF54; details: for Selectivity Ratio M: HepG2 Tox50 versus male IC50; for inhibition at 2 µM: 24h preincubation with gametocytes
Summary of the method: as §1

[6] = tested on: P. falciparum female gametocytes; parameters: method as in Miguel-Blanco et al 2017; details: ref Miguel-Blanco et al 2017; read-out: Pf female gametogenesis FGAA IC50; cited from earlier work
[7] = tested on: P. falciparum female gametocytes; assay: P. falciparum Female Gametocyte Activation Assay (PfFGAA); assay type: cell-based, Plasmodium falciparum
Source text: as §2

[8] = this study, read-out: Pf DGFA IC50 FEM
[9] = this study, read-out: Pf DGFA IC50 MALE
[10] = Mean TOX HepG2 over FGAA IC50, GREEN = >10-fold, RED = <10-fold
[11] = Mean TOX HepG2 over DGFA IC50 FEM, GREEN = >10-fold, RED = <10-fold
[12] = Plasmodium falciparum, PfDGFA, 24 h incubation with gametocytes before induction, female gamete readout, read-out: Female IC50
[13] = HepG2 value reported with the FGAA screen, ref Miguel-Blanco et al 2017
[14] = Mean TOX HepG2 over DGFA IC50 MALE, GREEN = >10-fold, RED = <10-fold
[15] = Plasmodium falciparum, PfDGFA, 24 h incubation with gametocytes before induction, exflagellation readout, read-out: Male IC50

SMILES	Mean TOX [1]	Cytotox ratio Pf Female [2]	pIC50 [2, 8]	Cytotox ratio Pf Male [5]	pIC50 [5, 9]	pIC50 [6]	FGAA TOX50 HepG2 [3]	Cytotox ratio Pf FGAA [7, 10]	further results
Br.CC[C@H]1CN2CCc3cc(OC)c(OC)cc3[C@@H]2C[C@@H]1C[C@H]1NCCc2c1cc(OC)c(O)c2I [TC07]	5.89 µM	20.3	6.54	7.0	6.08				ODA TOX50 HepG2 [3]: 5.433 µM; Cytotox ratio Pb Ookinete [4]: 8736.5
Cc1ccc(C(C(=O)Nc2ccc(N3CCNCC3)c(Cl)c2)c2ccccc2)cc1 (stereo not shown) [TC10]	11.61 µM	1.2		27.6	6.38	6.18	11.89 µM	17.6	
CCc1cc2c(Sc3nnc(N)s3)ncnc2s1 [TC12]	46.65 µM	63.0	6.13	47.6	6.01	6.14	32.3 µM	63.9	
FC(F)(F)c1ccc2[nH]c(-c3ccc(-c4ccc(CNCCN5CCNCC5)cc4)cc3)nc2c1.O=C(O)C(F)(F)F [TC40]	15.09 µM	2.5	5.22	10.3	5.84	5.85	16.43 µM	10.7	
O=C1Nc2ccccc2C1=NNC(=S)N1CCOCC1 [TC50]	46.30 µM	26.0	5.75	22.9	5.69	6.62		192.9	DGFA Tox50 HepG2 ([1]; HepG2 value reported with the DGFA screen): 46.3 µM
COc1cccc(C23NC(=Nc4nc5ccccc5[nH]4)NC2(c2cccc(OC)c2)NC(=Nc2nc4ccccc4[nH]2)N3)c1 (stereo not shown) [TC54]	36.56 µM	28.1	5.89	19.8	5.73	7.05	40.74 µM	406.2	
COc1ccc2nc(N=C3NC4(c5ccccc5)NC(=Nc5nc6ccc(OC)cc6[nH]5)NC4(c4ccccc4)N3)[nH]c2c1.O=C(O)C(F)(F)F (stereo not shown) [TC55]	48.12 µM	8.2	5.23	41.5	5.94	6.92	62.72 µM	401.0	
c1ccc(-c2nc(Nc3nc4ccccc4[nH]3)[nH]c2-c2ccccc2)cc1 [TC56]	13.60 µM	13.3	5.99	14.3	6.02	6.24	10.98 µM	23.4	
CCN(CC)CCN(Cc1ccc(-c2ccc(C(F)(F)F)cc2)cc1)C(=O)Cn1cc(Cc2cnn(C)c2)c(=O)nc1/C=C/c1ccc(F)cc1.O=C(O)C(O)C(O)C(=O)O [TC64]	15.09 µM	2.1	5.15	17.8	6.07	5.92	13.81 µM	12.5	
FC(F)(F)c1ccc2[nH]c(-c3ccc(-c4cccc(CNCCN5CCNCC5)c4)cc3)nc2c1.O=C(O)C(F)(F)F [TC77]	16.43 µM	3.2	5.29	10.0	5.79	5.77	12.31 µM	9.6	
CC(Nc1cc(-c2ccccn2)nc(-c2ccccn2)n1)c1ccccc1 (stereo not shown) [TCMDC-125420]	6.79 µM					6.68			Tox50 [1]: 7.4 µM; Selectivity ratio F [2]: 10.4; Cytotox ratio Pf Female [2, 11]: 9.6; inhibition at 2 µM ([2]; Plasmodium falciparum, PfDGFA at 2µM, average of replicates, read-out: Average inhibition female (%)): 56%; inhibition at 2 µM ([2]; Plasmodium falciparum, PfDGFA at 2µM, replicate R1, read-out: % inhibition female (individual replicates) R1): 55.2%; inhibition at 2 µM ([2]; Plasmodium falciparum, PfDGFA at 2µM, replicate R2, read-out: % inhibition female (individual replicates) R2): 57.8%; inhibition at 2 µM ([2]; Plasmodium falciparum, PfDGFA at 2µM, replicate R3, read-out: % inhibition female (individual replicates) R3): 63%; inhibition at 2 µM ([2]; Plasmodium falciparum, PfDGFA at 2µM, replicate R4, read-out: % inhibition female (individual replicates) R4): 48%; pIC50 [2, 12]: 6.15; HitlevelF ([2]; number of replicates with >50% inhibition in the female readout, 2µM): 3; FGAA TOX50 HepG2 [3, 13]: 6.18 µM; Selectivity Ratio M [5]: 3.89; Cytotox ratio Pf Male [5, 14]: 3.6; inhibition at 2 µM ([5]; Plasmodium falciparum, PfDGFA at 2µM, average of replicates, read-out: Average inhibition male (%)): 78.7%; inhibition at 2 µM ([5]; Plasmodium falciparum, PfDGFA at 2µM, replicate R1, read-out: % inhibition male (individual replicates) R1): 74.1%; inhibition at 2 µM ([5]; Plasmodium falciparum, PfDGFA at 2µM, replicate R2, read-out: % inhibition male (individual replicates) R2): 77.3%; inhibition at 2 µM ([5]; Plasmodium falciparum, PfDGFA at 2µM, replicate R4, read-out: % inhibition male (individual replicates) R4): 84.5%; pIC50 [5, 15]: 5.72; HitlevelM ([5]; number of replicates with >50% inhibition in the male readout, 2µM): 3; Cytotox ratio Pf FGAA ([7]; human): 29.4
CN(C)CCOc1ccc(NC(=O)NC(C)(C)c2nc(-c3ccc(Cl)c(O)c3)c(-c3ccncc3)[nH]2)cc1.Cl [TCMDC-140744]	21.75 µM					6.14			Tox50 [1]: 29.19 µM; Selectivity ratio F [2]: 76.37; Cytotox ratio Pf Female [2, 11]: 57.2; inhibition at 2 µM ([2]; Plasmodium falciparum, 2µM, average of replicates, read-out: Average inhibition female (%)): 95.5%; inhibition at 2 µM ([2]; Plasmodium falciparum, 2µM, replicate R1, read-out: % inhibition female (individual replicates) R1): 91.1%; inhibition at 2 µM ([2]; Plasmodium falciparum, 2µM, replicate R2, read-out: % inhibition female (individual replicates) R2): 96.2%; inhibition at 2 µM ([2]; Plasmodium falciparum, 2µM, replicate R3, read-out: % inhibition female (individual replicates) R3): 101%; inhibition at 2 µM ([2]; Plasmodium falciparum, 2µM, replicate R4, read-out: % inhibition female (individual replicates) R4): 93.9%; pIC50 [2, 12]: 6.42; FGAA TOX50 HepG2 [3, 13]: 14.3 µM; Selectivity Ratio M [5]: 89.77; Cytotox ratio Pf Male [5, 14]: 65.9; inhibition at 2 µM ([5]; Plasmodium falciparum, 2µM, average of replicates, read-out: Average inhibition male (%)): 97.8%; inhibition at 2 µM ([5]; Plasmodium falciparum, 2µM, replicate R1, read-out: % inhibition male (individual replicates) R1): 98.2%; inhibition at 2 µM ([5]; Plasmodium falciparum, 2µM, replicate R2, read-out: % inhibition male (individual replicates) R2): 101%; inhibition at 2 µM ([5]; Plasmodium falciparum, 2µM, replicate R3, read-out: % inhibition male (individual replicates) R3): 95.7%; inhibition at 2 µM ([5]; Plasmodium falciparum, 2µM, replicate R4, read-out: % inhibition male (individual replicates) R4): 96.3%; pIC50 [5, 15]: 6.48; Cytotox ratio Pf FGAA ([7]; human): 29.8
